Experimental data reported in ChEMBL document CHEMBL5331045, “Recent advances in β-lactamase inhibitor chemotypes and inhibition modes” (Eur J Med Chem, 2022).

Experiments:
[1] = Inhibition of Aeromonas hydrophila NDM1 preincubated for 30 mins followed by nitrocefin solution measured by UV based microtitre plate analysis
[2] = Inhibition of Aeromonas hydrophila VIM2 preincubated for 30 mins followed by nitrocefin solution measured by UV based microtitre plate analysis
[3] = Inhibition of Aeromonas hydrophila VIM4 preincubated for 30 mins followed by nitrocefin solution measured by UV based microtitre plate analysis
[4] = Binding affinity to Sfh1 (unknown origin) assessed as inhibition constant; set-up: species or system Homo sapiens
[5] = Binding affinity to IMP1 (unknown origin) assessed as inhibition constant; set-up: species or system Bacteria
[6] = Binding affinity to VIM2 (unknown origin) assessed as inhibition constant; set-up: species or system Bacteria
[7] = Binding affinity to NDM1 (unknown origin) assessed as inhibition constant; set-up: species or system Bacteria
[8] = Binding affinity to L1 (unknown origin) assessed as inhibition constant; set-up: species or system Homo sapiens
[9] = Binding affinity to IMP1 (unknown origin) expressed in Escherichia coli BL21 (DE3) assessed as inhibition constant using IPM as substrate incubated for 5 mins; set-up: species or system Homo sapiens
[10] = Binding affinity to VIM2 (unknown origin) expressed in Escherichia coli BL21 (DE3) assessed as inhibition constant using IPM as substrate incubated for 5 mins; set-up: species or system Homo sapiens
Beta-lactamase VIM-1 [11] = target: T1, Beta-lactamase VIM-1 (Bacteria, UniProt Q8GDC1); assay: Inhibition of VIM1 (unknown origin)
[12] = Inhibition of IMP1 (unknown origin); set-up: species or system Bacteria
[13] = Binding affinity to VIM4 (unknown origin) assessed as inhibition constant; set-up: species or system Homo sapiens
Beta-lactamase VIM-1 [14] = target: T1, Beta-lactamase VIM-1; assay: Binding affinity to VIM1 (unknown origin) assessed as inhibition constant
[15] = Inhibition of Imis (unknown origin) using cefazolin as substrate; set-up: species or system Homo sapiens
[16] = Inhibition of L1 (unknown origin) using cefazolin as substrate; set-up: species or system Homo sapiens
[17] = Inhibition of IMP1 (unknown origin) using cefazolin as substrate; set-up: species or system Homo sapiens
[18] = target: T2, Metallo-beta-lactamase type 2 (Bacteria, UniProt C7C422); assay: Inhibition of NDM1 (unknown origin) using cefazolin as substrate
[19] = Inhibition of VIM2 (unknown origin); set-up: species or system Bacteria
[20] = target: T2, Metallo-beta-lactamase type 2; assay: Inhibition of NDM1 (unknown origin); settings: read-out: pIC50 (converted)
[21] = Inhibition of VIM2 (unknown origin) by spectroscopic analysis; set-up: species or system Homo sapiens
[22] = Inhibition of IMP1 (unknown origin) using nitrocefin as substrate incubated for 30 mins; set-up: species or system Homo sapiens
[23] = Inhibition of VIM2 (unknown origin) using nitrocefin as substrate incubated for 30 mins; set-up: species or system Homo sapiens
[24] = target: T2, Metallo-beta-lactamase type 2; assay: Inhibition of NDM1 (unknown origin) by spectroscopic analysis
[25] = Inhibition of L1 (unknown origin) by spectroscopic analysis; set-up: species or system Homo sapiens
[26] = Inhibition of IMP1 (unknown origin) by spectroscopic analysis; set-up: species or system Homo sapiens
[27] = Inhibition of Escherichia coli beta-lactamase CMY-2
[28] = Inhibition of Escherichia coli beta-lactamase CTX-M-15
[29] = Inhibition of Escherichia coli beta-lactamase CTX-M-44
Beta-lactamase TEM-1 = Beta-lactamase TEM-1 (Escherichia coli, UniProt Q4GY26); assay: Inhibition of Escherichia coli beta-lactamase TEM-1
Beta-lactamase = Beta-lactamase (Enterobacter cloacae, UniProt P05364); assay: Inhibition of Enterobacter cloacae AmpC
Beta-lactamase OXA-1 = Beta-lactamase OXA-1 (Escherichia coli, UniProt P13661); assay: Inhibition of Escherichia coli beta-lactamase OXA-1
Beta-lactamase CTX-M-14 = Beta-lactamase CTX-M-14 (Escherichia coli, UniProt Q9L5C7); assay: Inhibition of Escherichia coli beta-lactamase CTX-M-14
[30] = Inhibition of Pseudomonas aeruginosa beta-lactamase OXA-2
[31] = Inhibition of CphA (unknown origin); set-up: species or system Homo sapiens
[32] = target: Carbapenem-hydrolyzing beta-lactamase KPC (Klebsiella pneumoniae, UniProt Q9F663); assay: Inhibition of Klebsiella pneumoniae beta-lactamase KPC-2
Beta-lactamase OXA-23 = Beta-lactamase OXA-23 (Acinetobacter baumannii, UniProt Q9L4P2); assay: Inhibition of Acinetobacter baumannii beta-lactamase OXA-23
[33] = Inhibition of Aeromonas hydrophila IMP1 preincubated for 30 mins followed by nitrocefin solution measured by UV based microtitre plate analysis
[34] = Inhibition of Escherichia coli beta-lactamase TEM-10
[35] = Inhibition of VIM2 (unknown origin) using fluorescent cephalosporin FC5 as substrate incubated for 15 mins followed by substrate addition measured by fluorescence based analysis; set-up: species or system Homo sapiens
[36] = target: T2, Metallo-beta-lactamase type 2; assay: Inhibition of NDM1 (unknown origin) using fluorescent cephalosporin FC5 as substrate incubated for 15 mins followed by substrate addition measured by fluorescence based analysis
[37] = Inhibition of IMP28 (unknown origin) using fluorescent cephalosporin FC5 as substrate incubated for 15 mins followed by substrate addition measured by fluorescence based analysis; set-up: species or system Homo sapiens

T2 sequence (C7C422 whole entry): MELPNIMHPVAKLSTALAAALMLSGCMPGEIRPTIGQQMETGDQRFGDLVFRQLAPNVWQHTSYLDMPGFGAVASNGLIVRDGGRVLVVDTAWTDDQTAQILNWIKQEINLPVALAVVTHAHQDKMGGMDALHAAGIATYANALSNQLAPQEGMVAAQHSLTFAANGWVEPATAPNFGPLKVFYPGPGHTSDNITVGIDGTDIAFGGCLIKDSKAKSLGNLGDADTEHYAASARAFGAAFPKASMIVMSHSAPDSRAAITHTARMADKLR
Sequence of Beta-lactamase OXA-1 (P13661 whole entry): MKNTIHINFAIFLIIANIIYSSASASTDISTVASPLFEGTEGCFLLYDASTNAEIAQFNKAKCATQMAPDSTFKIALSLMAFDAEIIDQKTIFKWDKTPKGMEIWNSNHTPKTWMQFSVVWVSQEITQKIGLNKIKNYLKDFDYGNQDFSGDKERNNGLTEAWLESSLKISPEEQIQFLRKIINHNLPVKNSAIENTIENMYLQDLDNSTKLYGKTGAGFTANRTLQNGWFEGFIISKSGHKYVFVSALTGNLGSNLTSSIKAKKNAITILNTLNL
Sequence of Beta-lactamase CTX-M-14 (Q9L5C7 whole entry): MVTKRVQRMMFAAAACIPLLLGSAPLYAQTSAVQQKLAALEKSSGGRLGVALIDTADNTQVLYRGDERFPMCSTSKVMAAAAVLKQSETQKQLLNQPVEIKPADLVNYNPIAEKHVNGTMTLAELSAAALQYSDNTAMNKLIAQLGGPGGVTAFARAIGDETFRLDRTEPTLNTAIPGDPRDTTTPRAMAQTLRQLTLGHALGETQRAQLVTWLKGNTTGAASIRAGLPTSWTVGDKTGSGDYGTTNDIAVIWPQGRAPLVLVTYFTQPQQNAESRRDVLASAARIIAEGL
Sequence of Beta-lactamase TEM-1 (Q4GY26 whole entry): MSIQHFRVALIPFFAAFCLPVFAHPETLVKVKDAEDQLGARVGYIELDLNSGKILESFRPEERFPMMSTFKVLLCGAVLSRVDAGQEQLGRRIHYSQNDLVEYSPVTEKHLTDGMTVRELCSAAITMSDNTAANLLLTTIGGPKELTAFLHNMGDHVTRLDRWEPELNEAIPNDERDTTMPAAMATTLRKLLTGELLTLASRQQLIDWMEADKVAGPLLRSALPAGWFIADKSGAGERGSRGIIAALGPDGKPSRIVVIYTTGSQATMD
Sequence of Beta-lactamase (P05364 whole entry): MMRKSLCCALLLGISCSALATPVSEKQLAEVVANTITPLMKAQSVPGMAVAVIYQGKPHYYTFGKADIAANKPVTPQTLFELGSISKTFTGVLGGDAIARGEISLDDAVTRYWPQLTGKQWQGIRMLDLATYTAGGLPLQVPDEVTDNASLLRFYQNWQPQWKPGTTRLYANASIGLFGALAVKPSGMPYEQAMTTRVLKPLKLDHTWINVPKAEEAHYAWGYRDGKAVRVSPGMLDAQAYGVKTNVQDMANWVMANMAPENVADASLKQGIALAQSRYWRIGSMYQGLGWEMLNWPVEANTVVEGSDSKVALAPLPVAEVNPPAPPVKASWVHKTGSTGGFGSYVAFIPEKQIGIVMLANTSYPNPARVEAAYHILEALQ
Sequence of Carbapenem-hydrolyzing beta-lactamase KPC (Q9F663 whole entry): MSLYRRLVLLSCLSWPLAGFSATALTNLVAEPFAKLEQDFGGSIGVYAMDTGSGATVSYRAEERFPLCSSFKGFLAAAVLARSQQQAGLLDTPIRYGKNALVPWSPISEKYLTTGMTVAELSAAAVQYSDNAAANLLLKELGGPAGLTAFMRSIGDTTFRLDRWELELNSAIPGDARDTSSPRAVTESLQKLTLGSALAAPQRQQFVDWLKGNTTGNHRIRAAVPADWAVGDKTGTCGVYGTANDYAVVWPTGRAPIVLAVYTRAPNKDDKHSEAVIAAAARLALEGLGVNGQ
Sequence of Beta-lactamase OXA-23 (Q9L4P2 whole entry): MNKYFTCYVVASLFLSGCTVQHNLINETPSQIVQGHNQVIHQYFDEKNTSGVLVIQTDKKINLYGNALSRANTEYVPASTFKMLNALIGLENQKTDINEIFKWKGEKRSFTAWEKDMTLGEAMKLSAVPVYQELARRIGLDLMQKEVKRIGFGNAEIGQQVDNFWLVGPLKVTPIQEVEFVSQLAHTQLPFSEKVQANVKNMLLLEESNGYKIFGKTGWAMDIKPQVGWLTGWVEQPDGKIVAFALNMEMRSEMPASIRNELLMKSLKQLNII

## Nn1c(-c2cc3ccccc3[nH]2)n[nH]c1=S
[1]
  IC50: 34000 nM
[2]
  IC50: 14000 nM
[3]
  IC50: 19000 nM

## COC(=O)[C@]1(CS)N[C@H](C(=O)O)CS1
[4]
  Ki: 160 nM
[5]; read-out: Ki
  Ki: 1000 nM
[6]
  Ki: 380 nM
[7]; read-out: Ki
  Ki: 5200 nM
[8]
  Ki: 10000 nM

## Cc1oc(C)c(S(N)(=O)=O)c1C(=O)O
[9]
  Ki: 220 nM
[10]
  Ki: 2810 nM

## Nc1nc2c(-c3ccc(S(=O)(=O)NC[C@H]4CCNC4)c(S(N)(=O)=O)c3-c3nnn[nH]3)cccc2s1
Beta-lactamase VIM-1 [11]; read-out: IC50
  IC50: 0.125 nM
[12]
  IC50: 0.16 nM

## COC(=O)[C@]1(CS)N[C@H](C(=O)O)C(C)(C)S1
[4]
  Ki: 1300 nM
[5]; read-out: Ki
  Ki: 460 nM
[6]
  Ki: 750 nM
[7]; read-out: Ki
  Ki: 440 nM
[8]
  Ki: 20000 nM

## O=C(O)c1ccccc1CNn1c(-c2cccc(-c3ccccc3)c2)n[nH]c1=S
[5]; read-out: Ki
  Ki: 76000 nM
[13]
  Ki: 570 nM
[6]
  Ki: 240 nM
[7]; read-out: Ki
  Ki: 8200 nM
Beta-lactamase VIM-1 [14]
  Ki: 3600 nM

## Nc1nc2cccc(-c3ccc(S(N)(=O)=O)c(S(N)(=O)=O)c3-c3nn[nH]n3)c2[nH]1
Beta-lactamase VIM-1 [11]; read-out: IC50
  IC50: 0.264 nM
[12]
  IC50: 0.58 nM

## O=C(O)CCCn1c(-c2cccc(-c3ccccc3)c2)n[nH]c1=S
[5]
  Ki: Not Active
[13]
  Ki: 270 nM
[6]
  Ki: 350 nM
[7]; read-out: Ki
  Ki: 99800 nM
Beta-lactamase VIM-1 [14]
  Ki: 5500 nM

## CCc1c(C(=O)O)c(S(N)(=O)=O)c(CC)n1C
[9]
  Ki: 260 nM
[10]
  Ki: 20 nM

## O=C(O)C1=C(CSc2nnc(-c3ccc(-n4[se]c5ccccc5c4=O)cc3)[nH]2)CSC2[C@@H](NC(=O)c3ccccc3)C(=O)N12 (stereo partly drawn)
[15]
  IC50: 4860 nM
[16]
  IC50: 6680 nM
[17]
  IC50: 280 nM
[18]
  IC50: 2930 nM

## NS(=O)(=O)n1ccc(-c2ccc(F)cc2)c1C(=O)O
[19]
  pIC50: 7.7
Beta-lactamase VIM-1 [11]; read-out: pIC50 (converted)
  IC50: 126 nM
[12]
  pIC50: 9.2

## CC(C)c1cccc2c1N=C(C(=O)O)C2c1ccc(CS(C)(=O)=O)c(Cl)c1 (stereo not drawn)
[20]
  IC50: 1.26 nM
Beta-lactamase VIM-1 [11]; read-out: pIC50 (converted)
  IC50: 10 nM
[21]
  pIC50: 8.1
[12]
  pIC50: 8.5

## NS(=O)(=O)n1ccc(-c2ccc(C3CCNCC3)cc2)c1C(=O)O
[22]
  IC50: 40 nM
[23]
  IC50: 67300 nM

## O=C(O)c1ccccc1CCn1c(-c2cccc(OCCN3CCOCC3)c2)n[nH]c1=S
[5]
  Ki: Not Active
[13]
  Ki: 1270 nM
[6]
  Ki: 340 nM
[7]
  Ki: Not Active
Beta-lactamase VIM-1 [14]
  Ki: 4690 nM

## O=C(O)c1cccc(C(O)P(=O)(O)O)n1 (stereo not drawn)
[24]
  IC50: 322 nM
[25]
  IC50: 2050 nM
[26]
  IC50: 7200 nM
[21]
  IC50: 1900 nM

## NC(=O)[C@@H]1CC[C@@H]2CN1C(=O)N2OS(=O)(=O)O [AVIBACTAM]
[27]
  IC50: 44 nM
[28]
  IC50: 1 nM
[29]
  IC50: 4 nM
Beta-lactamase TEM-1
  IC50: 7 nM
Beta-lactamase
  IC50: 923 nM
Beta-lactamase OXA-1
  IC50: 130 nM
Beta-lactamase CTX-M-14
  IC50: 3 nM
[30]
  IC50: 485 nM

## C[C@H](CS)C(=O)N1CCC[C@@H]1C(=O)O [D-CAPTOPRIL]
[31]
  IC50: 72000 nM

## O=c1c2ccccc2[se]n1-c1ccccc1 [EBSELEN]
[7]; read-out: Ki
  Ki: 380 nM

## NCCONC(=O)[C@@H]1CC[C@@H]2CN1C(=O)N2OS(=O)(=O)O [NACUBACTAM]
[32]
  IC50: 869 nM
[27]
  IC50: 15 nM
[28]
  IC50: 13 nM
[29]
  IC50: 22 nM
Beta-lactamase TEM-1
  IC50: 26 nM
Beta-lactamase
  IC50: 845 nM
Beta-lactamase OXA-1
  IC50: 3050 nM
Beta-lactamase OXA-23
  IC50: 46400 nM
[33]
  IC50: 1400 nM
[34]
  IC50: 96 nM
Beta-lactamase CTX-M-14
  IC50: 10 nM
[30]
  IC50: 1070 nM

## O=C(O)CN(CC(=O)O)CC(=O)O [NITRILOTRIACETIC ACID]
[35]
  IC50: 2400 nM
[36]
  IC50: 1300 nM
[37]
  IC50: 112000 nM
